# Laboratory results from patent EP4806891A1 (Kangbaida (Sichuan) Biotechnology Co., Ltd., priority 2023, dated 2025).
# Experiments:
# IL-6 = experiment: In vivo inhibition assay of IL-6; parameters: species or system C57BL/6 female mice; conditions: Mus musculus, ip; mice, test compound 1 mg/kg by gavage, 25 µg R848 intraperitoneally 1 h later, serum IL-6 2 h later; read-out: IL-6 inhibition rate (intraperitoneal injection after 1 h)
# Procedure: In vivo inhibition assay of IL-6
# Experimental materials: Preparation of compound solutions: R848 was prepared with pure water (sterilized), with a final concentration of 25 µg/100 µL; the test compound was prepared with sodium citrate buffer at pH = 3, with a final concentration of 0.1 mg/mL.
# Experimental animals: C57BL/6 female mice were purchased from GemPharmatech, aged 6-8 weeks.
# Experimental methods: C57BL/6 female mice were randomly divided into a blank group, control group, and experimental group, with 8 in each group.
# Blank group: Blood was collected from the mice after 12 h of fasting.
# Control group: The mice were administered sodium citrate buffer at pH = 3 by gavage after 12 hours of fasting, and the remaining procedures were consistent with those of the experimental group.
# Experimental group: After fasting for 12 h, the mice were administered with the test compound (1 mg/kg) by gavage, followed by an intraperitoneal injection of 25 µg R848 (purchased from MCE) 1 h later; 2 h later, the eyeballs were removed for blood collection, the serum was allowed to stand at room temperature for 30 min, then centrifuged for 10 min (3000 rpm), the supernatant was collected, and the serum IL-6 concentration was measured using an IL-6 ELISA kit. The IL-6 inhibition rate was calculated based on the serum IL-6 concentrations of the control and experimental groups. Calculation formula: inhibition rate = (C2-C3)/(C2-C1)×100%. • C1: serum IL-6 concentration of the blank group; • C2: serum IL-6 concentration of the control group; • C3: serum IL-6 concentration of the experimental group.
# Four additional groups of experiments were performed separately according to the above experimental procedures, and the differences between these four groups and the above experiment were respectively: "25 µg R848 (purchased from MCE) was intraperitoneally injected after 4 h", "25 µg R848 (purchased from MCE) was intraperitoneally injected after 8 h", "25 µg R848 (purchased from MCE) was intraperitoneally injected after 16 h", and "25 µg R848 (purchased from MCE) was intraperitoneally injected after 24 h". Table 2: In vivo inhibition assay of IL-6
# HEK-Blue-hTLR7 cells = target: T1, HEK-Blue-hTLR7 cells (Homo sapiens, UniProt Q9NYK1); experiment: HEK-Blue-hTLR7 cell inhibition assay; format: cell-based; conditions: R848 0.8 µM, 16 h, OD 620 nm, read-out: TLR7 IC50
# T1 construct: expressed in transfected cells; host or cells: HEK-Blue-hTLR7 cells (HEK293-derived reporter line)
# T1 sequence (Q9NYK1 27-1049): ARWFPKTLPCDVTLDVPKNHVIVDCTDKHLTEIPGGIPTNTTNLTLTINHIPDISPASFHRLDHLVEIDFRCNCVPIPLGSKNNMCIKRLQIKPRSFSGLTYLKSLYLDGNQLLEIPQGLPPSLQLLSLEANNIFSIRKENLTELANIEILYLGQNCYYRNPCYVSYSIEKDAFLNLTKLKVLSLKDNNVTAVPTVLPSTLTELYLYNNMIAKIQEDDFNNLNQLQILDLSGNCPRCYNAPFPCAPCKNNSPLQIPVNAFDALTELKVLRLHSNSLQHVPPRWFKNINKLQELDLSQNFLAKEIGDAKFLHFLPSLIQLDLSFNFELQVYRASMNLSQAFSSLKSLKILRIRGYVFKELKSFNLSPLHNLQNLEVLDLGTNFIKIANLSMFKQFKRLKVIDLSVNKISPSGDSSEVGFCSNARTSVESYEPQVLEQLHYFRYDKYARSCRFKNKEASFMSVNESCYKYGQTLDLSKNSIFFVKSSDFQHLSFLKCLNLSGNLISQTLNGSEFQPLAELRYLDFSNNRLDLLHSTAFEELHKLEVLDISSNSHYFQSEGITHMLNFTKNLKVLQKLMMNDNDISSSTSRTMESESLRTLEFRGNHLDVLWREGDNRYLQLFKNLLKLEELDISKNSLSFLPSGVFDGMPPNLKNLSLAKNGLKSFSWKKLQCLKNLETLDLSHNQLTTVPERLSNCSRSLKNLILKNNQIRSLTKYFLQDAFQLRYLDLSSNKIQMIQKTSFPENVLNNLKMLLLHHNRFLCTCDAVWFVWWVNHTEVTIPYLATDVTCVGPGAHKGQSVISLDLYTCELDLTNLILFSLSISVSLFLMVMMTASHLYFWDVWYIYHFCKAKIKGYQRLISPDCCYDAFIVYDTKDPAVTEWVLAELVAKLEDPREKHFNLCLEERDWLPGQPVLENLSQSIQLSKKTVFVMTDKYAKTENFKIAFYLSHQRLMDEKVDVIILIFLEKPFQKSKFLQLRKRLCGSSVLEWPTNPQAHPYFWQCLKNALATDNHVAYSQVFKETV
# Summary of the method: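 Cells were pre-incubated 4 h, then co-treated 16 h at 37 °C with compound (10 doses, 0.5–10000 nM final) plus R848 (0.8 µM for TLR7, 3 µM for TLR8) or ODN2006 (1 µM, TLR9). Reporter OD620 gave inhibition relative to DMSO blank and agonist-only controls; IC50 came from curve fitting.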
SMILES,IC50 (HEK-Blue-hTLR7 cells),inhibition at 1 mg/kg (IL-6)
"CN1CC(Cc2nnc([C@]34CN(c5ccc(C#N)n6ncc(F)c56)C[C@@]3(C(F)(F)F)C4)o2)C1 [Compound 30, 3-fluoro-4-((1S,5R)-1-(5-((1-methylazetidin-3-yl)methyl)-1,3,4-oxadiazol-2-yl)-5-(trifluoromethyl)-3-azabicyclo[3.1.0]hexan-3-yl)pyrazolo[1,5-a]pyridine-7-carbonitrile]",< 100 nM,> 90%
"CN1CCC(c2nnc([C@]34CN(c5ccc(OC(F)(F)F)c6ncccc56)C[C@@]3(C(F)(F)F)C4)o2)CC1 [Compound 64, 2-(1-methylpiperidin-4-yl)-5-((1S,5R)-5-(trifluoromethyl)-3-(8-(trifluoromethoxy)quinolin-5-yl)-3-azabicyclo[3.1.0]hexan-1-yl)-1,3,4-oxadiazole]",< 100 nM,> 70%
"CN1CC(Cc2nnc([C@]34CN(c5ccc(C(F)(F)F)c6ncccc56)C[C@@]3(C(F)(F)F)C4)o2)C1 [Compound 95, 2-((1-methylazetidin-3-yl)methyl)-5-((1S,5R)-5-(trifluoromethyl)-3-(8-(trifluoromethyl)quinolin-5-yl)-3-azabicyclo[3.1.0]hexan-1-yl)-1,3,4-oxadiazole]",< 100 nM,> 90%

# Now from value to molecule, other results behind:
IC50 (HEK-Blue-hTLR7 cells),SMILES,inhibition at 1 mg/kg (IL-6)
< 100 nM,"CN1CCC(c2nnc([C@]34CN(c5ccc(C#N)n6ncc(F)c56)C[C@@]3(C(F)(F)F)C4)o2)CC1 [Compound 57, 3-fluoro-4-((1S,5R)-1-(5-(1-methylpiperidin-4-yl)-1,3,4-oxadiazol-2-yl)-5-(trifluoromethyl)-3-azabicyclo[3.1.0]hexan-3-yl)pyrazolo[1,5-a]pyridine-7-carbonitrile]",> 90%
< 100 nM,"CN1CCC(c2nnc([C@]34CN(c5ccc(C#N)n6nccc56)C[C@@]3(C(F)(F)F)C4)o2)CC1 [Compound 59, 4-((1S,5R)-1-(5-(1-methylpiperidin-4-yl)-1,3,4-oxadiazol-2-yl)-5-(trifluoromethyl)-3-azabicyclo[3.1.0]hexan-3-yl)pyrazolo[1,5-a]pyridine-7-carbonitrile]",> 80%
< 100 nM,"CN1CCC(Oc2nnc([C@]34CN(c5ccc(C#N)c6ncnn56)C[C@@]3(C(F)(F)F)C4)o2)CC1 [Compound 97, 5-((1S,5R)-1-(5-((1-methylpiperidin-4-yl)oxy)-1,3,4-oxadiazol-2-yl)-5-(trifluoromethyl)-3-azabicyclo[3.1.0]hexan-3-yl)-[1,2,4]triazolo[1,5-a]pyridine-8-carbonitrile]",> 90%
